# Values quoted from earlier work as cited in US20120231996A1, “Phalloidin derivatives and methods for their synthesis” (priority 2006, published 2012).
# Numbered stars: 1 amine (or outer) side, 2 acyl side, 3 side chain; on linkers, the order of the positions; unused ones are H or OH. Bridge positions count the residues as written; N and C are the ends. Square brackets hold non-standard residues; d marks the D form. Peptide text beside a SMILES is read from it. Trp(2-yl) = O=C([C@H](Cc1c([*:3])[nH]c2ccccc12)N[*:1])[*:2]; Leu(4R-OH,5-OH) = C[C@](O)(CO)C[C@H](N)C(=O)O; cisHyp = O=C(O)[C@@H]1C[C@H](O)CN1
# Assays:
# actin = conditions: in solution
# [1] = test system: filamentous actin (F-actin)
smiles,measurement,setting,value
"C[C@@H]1NC(=O)[C@H](C[C@@](C)(O)CO)NC(=O)[C@@H]2Cc3c([nH]c4ccccc34)SC[C@H](NC(=O)[C@@H]([C@H](C)O)NC1=O)C(=O)N1C[C@@H](O)C[C@H]1C(=O)N[C@@H](C)C(=O)N2 [Phalloidin] (cyclo(A[dT]C[cisHyp]A[Trp(2-yl)][Leu(4R-OH,5-OH)]); thioether 3-6)",Effect on critical concentration of actin polymerization,actin,lowers the critical concentration of actin polymerization
same,Affinity of binding to filamentous actin,[1],binds with high affinity
